Results published in ChEMBL document CHEMBL2203037, “Synthesis and Anti-influenza A Virus Activity of 2,2-Dialkylamantadines and Related Compounds” (ACS Med Chem Lett, 2012).
Calls of active or inactive are those of the source. The rule behind the calls is not given here.

Key:
Vaccinia virus = assay: Antiviral activity against Vaccinia virus by cell based assay; type: functional, organism-based; details: Orthopoxvirus vaccinia
Punta Toro virus = assay: Antiviral activity against Punta Toro virus by cell based assay; type: functional, organism-based
Sindbis virus = assay: Antiviral activity against Sindbis virus by cell based assay; type: functional, organism-based
H3N2 subtype [1] = assay: Antiviral activity against Influenza A virus (A/HK/7/87 (H3N2)) infected in MDCK cells assessed as virus-induced cytopathic effect by MTS assay; type: functional, organism-based, A/Hong Kong/7/1987(H3N2)
Human respirovirus 3 = assay: Antiviral activity against Parainfluenza-3 virus by cell based assay; type: functional, organism-based
[2] = Cytotoxicity against dog MDCK cells assessed as cell morphology alterations; type: cell-based, Canis lupus familiaris
[3] = Cytotoxicity against dog MDCK cells assessed as cell viability after 72 hrs by MTS assay; type: cell-based, Canis lupus familiaris
[4] = test system: Mammalian orthoreovirus 1; assay: Antiviral activity against Reovirus-1 by cell based assay; type: functional, organism-based
Coxsackievirus B4 = assay: Antiviral activity against Coxsackievirus B4 by cell based assay; type: functional, organism-based
[5] = test system: Vesicular stomatitis virus; assay: Antiviral activity against Vesicular stomatitis virus by cell based assay; type: functional, organism-based
[6] = test system: Respiratory syncytial virus; assay: Antiviral activity against Respiratory syncytial virus by cell based assay; type: functional, organism-based
Simplexvirus = assay: Antiviral activity against Herpes simplex virus by cell based assay; type: functional, organism-based
H3N2 subtype [7] = assay: Antiviral activity against Influenza A virus (A/HK/7/87 (H3N2)) infected in MDCK cells assessed as virus-induced cytopathic effect measured 3 days post infection by microscopic analysis; type: functional, organism-based; details: A/Hong Kong/7/1987(H3N2), 72 h
Feline coronavirus = assay: Antiviral activity against Feline coronavirus by cell based assay; type: functional, organism-based
Influenza A virus [8] = assay: Antiviral activity against Influenza A virus (A/Ishikawa/7/82 (H3N2)) infected in MDCK cells assessed as virus-induced cytopathic effect measured 3 days post infection by microscopic analysis; type: functional, organism-based
Influenza A virus [9] = assay: Antiviral activity against amantadine-sensitive Influenza A virus (A/Ned/378/05 (H1N1)) infected in MDCK cells assessed as virus-induced cytopathic effect measured 3 days post infection by microscopic analysis; type: functional, organism-based; details: 72 h
Influenza A virus [10] = assay: Antiviral activity against amantadine-sensitive Influenza A virus (A/FM/1/47 (H1N1)) infected in MDCK cells assessed as virus-induced cytopathic effect measured 3 days post infection by microscopic analysis; type: functional, organism-based; details: A/Fort Monmouth/1/1947(H1N1), 72 h
Influenza A virus [11] = assay: Antiviral activity against Influenza A virus (A/X-31(H3N2)) infected in MDCK cells assessed as virus-induced cytopathic effect measured 3 days post infection by microscopic analysis; type: functional, organism-based
[12] = Influenza A virus, A/Hong Kong/7/1987(H3N2), MDCK
[13] = Influenza A virus, A/Ishikawa/7/82 (H3N2), MDCK, 72 h

| SMILES | Activity (Vaccinia virus) | Activity (Punta Toro virus) | Activity (Sindbis virus) | EC50 (H3N2 subtype [1]; [12]) [µM] | Activity (Human respirovirus 3) | MCC [2] [µM] | CC50 at 72 h [3] [µM] | Activity [4] | Activity (Coxsackievirus B4) | Activity [5] | Activity [6] | Activity (Simplexvirus) | EC50 (H3N2 subtype [7]) [µM] | Activity (Feline coronavirus) | EC50 (Influenza A virus [10]) [µM] | further results |
| --- | --- | --- | --- | --- | --- | --- | --- | --- | --- | --- | --- | --- | --- | --- | --- | --- |
| CC1(C)C2CC3CC(C2)CC1(N1CCCCC1)C3 | inactive | inactive | inactive | > 100 | inactive | 4 | 0.8 | inactive | inactive | inactive | inactive | inactive | > 100 | inactive |  |  |
| CCOC(=O)C1=C[C@@H](OC(CC)CC)[C@H](NC(C)=O)[C@@H](N)C1 [OSELTAMIVIR] |  |  |  |  |  | > 100 |  |  |  |  |  |  | 29 |  | 16 | EC50 (Influenza A virus [8]; [13]): 3 µM; EC50 (Influenza A virus [9]): 1.5 µM; EC50 (Influenza A virus [11]; Influenza A virus, MDCK, 72 h): 0.11 µM |
| CN(C)C12CC3CC(CC(C3)C1(C)C)C2 | inactive | inactive | inactive | > 100 | inactive | 110 | 68 | inactive | inactive | inactive | inactive | inactive | > 100 | inactive |  |  |
| NC12CC3CC(CC(C3)C1)C2 [AMANTADINE] |  |  |  |  |  | 500 | > 100 |  |  |  |  |  | 3.4 |  | 5.1 | EC50 (Influenza A virus [8]; [13]): 11 µM; EC50 (Influenza A virus [11]; mdck): 61 µM |
| CC1(C)C2CC3CC(C2)CC1(N)C3 | inactive | inactive | inactive | > 100 | inactive | 167 | 77 | inactive | inactive | inactive | inactive | inactive | > 100 | inactive |  |  |
| CNC12CC3CC(CC(C3)C1(C)C)C2 | inactive | inactive | inactive | > 100 | inactive | 110 | 70 | inactive | inactive | inactive | inactive | inactive | > 100 | inactive |  |  |
| CC(C)C1C2CC3CC(C2)CC1(N)C3 (configuration not stated) | inactive | inactive | inactive | > 100 | inactive | 5.3 | 8.6 | inactive | inactive | inactive | inactive | inactive | > 100 | inactive |  |  |
| CN(C)C12CC3(C)CC(CC3(C)C1)C2(C)C | inactive | inactive | inactive | > 100 | inactive | ≥ 100 | > 100 | inactive | inactive | inactive | inactive | inactive | > 100 | inactive |  |  |
| CCNC12CC3CC(CC(C3)C1(C)C)C2 | inactive | inactive | inactive | > 100 | inactive | 200 | 85 | inactive | inactive | inactive | inactive | inactive | > 100 | inactive |  |  |
| CCC1(CC)C2CC3CC(C2)CC1(N(C)C)C3 | inactive | inactive | inactive |  | inactive | ≥ 100 | > 100 | inactive | inactive | inactive | inactive | inactive | > 100 | inactive | 43 | EC50 (Influenza A virus [8]; [13]): > 100 µM; EC50 (H3N2 subtype [1]; mdck): > 100 µM; EC50 (Influenza A virus [9]): 23 µM; EC50 (Influenza A virus [11]; Influenza A virus, MDCK, 72 h): > 100 µM |
| NC(=O)c1ncn([C@@H]2O[C@H](CO)[C@@H](O)[C@H]2O)n1 [RIBAVIRIN] |  |  |  | 7 |  | ≥ 100 | ≥ 20 |  |  |  |  |  | 7.7 |  | 10 | EC50 (Influenza A virus [8]; mdck): 8.8 µM; EC50 (Influenza A virus [9]): 7.6 µM; EC50 (Influenza A virus [11]; mdck): 8.8 µM |
| CC(C)C1C2CC3CC(C2)CC1(N(C)C)C3 (configuration not stated) | inactive | inactive | inactive | > 100 | inactive | > 100 | ≥ 100 | inactive | inactive | inactive | inactive | inactive | > 100 | inactive |  |  |
| CC(=O)N[C@H]1[C@H]([C@H](O)[C@H](O)CO)OC(C(=O)O)=C[C@@H]1NC(=N)N [ZANAMIVIR] |  |  |  |  |  | > 200 |  |  |  |  |  |  | 1.2 |  | 5 | EC50 (Influenza A virus [8]; [13]): 8.7 µM; EC50 (Influenza A virus [9]): 1.7 µM; EC50 (Influenza A virus [11]; mdck): 0.16 µM |
| CCCC1(CCC)C2CC3CC(C2)CC1(N(C)C)C3 | inactive | inactive | inactive | > 100 | inactive | ≥ 100 | > 100 | inactive | inactive | inactive | inactive | inactive | > 100 | inactive |  |  |
| CCCC1(CCC)C2CC3CC(C2)CC1(N)C3 | inactive | inactive | inactive | > 100 | inactive | 6 | 2.9 | inactive | inactive | inactive | inactive | inactive | > 100 | inactive |  |  |
| CN(Cc1ccccc1)C12CC3CC(CC(C3)C1(C)C)C2 | inactive | inactive | inactive | > 100 | inactive | 4 | 0.7 | inactive | inactive | inactive | inactive | inactive | > 100 | inactive |  |  |
| CC12CC3CC1(C)CC(N)(C2)C3(C)C | inactive | inactive | inactive | > 100 | inactive | ≥ 100 | > 100 | inactive | inactive | inactive | inactive | inactive | > 100 | inactive |  |  |
| CC(N)C12CC3CC(CC(C3)C1)C2 (configuration not stated) [RIMANTADINE] |  |  |  |  |  | ≥ 100 | > 100 |  |  |  |  |  | 0.17 |  | 1.9 | EC50 (Influenza A virus [8]; [13]): 0.45 µM; EC50 (Influenza A virus [9]): 0.5 µM; EC50 (Influenza A virus [11]; mdck): 7 µM |
| NC12CC3CC(CC(C3)C13CCCCC3)C2 | inactive | inactive | inactive | > 100 | inactive | 6 | 4.7 | inactive | inactive | inactive | inactive | inactive | > 100 | inactive |  |  |
| CC1(C)C2CC3CC(C2)CC1(NCc1ccccc1)C3 | inactive | inactive | inactive | > 100 | inactive | 4 | 1.1 | inactive | inactive | inactive | inactive | inactive | > 100 | inactive |  |  |
